Laboratory results reported in publication PMC12276312 (Nature Communications, 2025).

Key:
MxaF/MxaJ complex = target: T1, MxaF/MxaJ complex (Methylorubrum extorquens, UniProt P16027); assay: isothermal titration calorimetry; format: binding
T1 sequence (P16027 28-626): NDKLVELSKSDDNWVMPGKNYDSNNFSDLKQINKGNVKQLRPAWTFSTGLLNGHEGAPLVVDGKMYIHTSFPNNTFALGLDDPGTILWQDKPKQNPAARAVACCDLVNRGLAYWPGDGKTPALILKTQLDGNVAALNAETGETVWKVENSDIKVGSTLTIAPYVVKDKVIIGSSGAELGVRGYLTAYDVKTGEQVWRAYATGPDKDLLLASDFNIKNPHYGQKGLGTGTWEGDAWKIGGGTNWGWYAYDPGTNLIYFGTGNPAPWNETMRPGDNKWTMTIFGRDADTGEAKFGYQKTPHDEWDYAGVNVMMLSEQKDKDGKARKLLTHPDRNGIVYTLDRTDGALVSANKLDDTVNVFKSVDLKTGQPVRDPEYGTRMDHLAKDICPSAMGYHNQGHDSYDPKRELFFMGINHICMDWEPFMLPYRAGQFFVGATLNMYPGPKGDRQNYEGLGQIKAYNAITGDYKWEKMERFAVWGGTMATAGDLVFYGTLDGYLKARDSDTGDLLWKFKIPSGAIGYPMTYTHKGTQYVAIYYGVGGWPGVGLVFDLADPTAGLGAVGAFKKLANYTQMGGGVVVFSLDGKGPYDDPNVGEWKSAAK
T1 sequence (P16028 26-300 partner): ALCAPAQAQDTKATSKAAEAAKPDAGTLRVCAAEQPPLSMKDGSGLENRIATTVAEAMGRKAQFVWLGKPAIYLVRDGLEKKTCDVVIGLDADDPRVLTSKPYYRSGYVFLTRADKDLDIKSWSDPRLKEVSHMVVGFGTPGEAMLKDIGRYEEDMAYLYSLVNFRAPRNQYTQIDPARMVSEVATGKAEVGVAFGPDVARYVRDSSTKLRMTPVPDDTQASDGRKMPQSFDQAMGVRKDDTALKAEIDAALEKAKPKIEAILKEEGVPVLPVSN

cryo-EM structure = target: the molecule itself; assay: cryo-EM structure

O=C(O)c1cc(C(=O)O)c2c(n1)C(=O)C(=O)c1cc(C(=O)O)[nH]c1-2 [PQQ]
Kd (MxaF/MxaJ complex): ~77 nM

B1: MxaF, untagged, co-expressed with MxaJ-His6 for cryo-EM (enzyme, Methylobacterium extorquens AM1, UniProt P16027 28-626, looked up)
chain: T1 sequence (P16027 28-626)
stoichiometry N (cryo-EM structure): 2
